Residues, ends and D or L forms follow the SMILES beside them. *: point of attachment. Cbz = O=C(OCc1ccccc1)*; CH2F = FC*
Legend:
RUNX1 = assay: siRNA-mediated RUNX1 KD in Kasumi-1 cells (RT-qPCR, Western blotting); type: cell-based, human; conditions: Western blot, 50 μM, 24 hrs after 72 hrs siRNA
From the text: FIG. 1A, upper panel, is a schematic illustration of RUNX1 (blue) and RUNX1-ETO (A-E) (blue-red) transcripts indicating regions targeted by the siRNAs used to knock down (KD) expression of either RUNX1 (bars underneath RUNX1 marked in green and orange) or A-E (black bar underneath A-E fusion region). […] NO: 49) (as marked in green in the upper panel). Total RNA isolated 24 hrs post electroporation of RUNX1-targeting or non-targeting (NT) control siRNA. Data shown represent mean expression±SE. Shown are results from one of three experiments with the same findings. Primers used for RT-qPCR are presented in Table 1 (in the Examples section which follows). […] Blots were reacted with an antibody (Ab) against RUNX1-N-terminus or Lamin. Results from one of two experiments with the same findings are shown. […] KD efficiency was assessed both by RT-qPCR and immunoblotting. […] Cells were collected, washed once in PBS, and nuclear proteins were extracted and analyzed by Western blotting as previously described [Aziz-Aloya, R. et al., Cell Death (1998) 5, 765-773]. […] Quantitation of cDNAs was performed by qPCR using Roche LC480 LightCycler with sequence-specific primers (Table 1, below) and miScript SYBR Green PCR kit (QIAGEN). Target transcript quantification was calculated relative to ACTB mRNA, which served as an internal control. Standard errors were calculated using REST.

Kasumi-1 cells = assay: Cell cycle analysis (Propidium iodide, FACS); type: cell-based, human; conditions: 50 μM, 24 hrs, three days post siRNA-delivery
From the text: FIGS. 1B and 1C illustrate cell cycle analysis 8 days post transfection with either RUNX1-targeting (SEQ ID NO: 52) or control non-targeting (NT) siRNA. FIG. 1B illustrates cells which were subjected to two successive transfections (at days 0 and 4) with either RUNX1-targeting or NT siRNA. Propidium iodide (PI) was used to assess cellular DNA content by FACS analysis. Bar numbers indicate the relative size (in %) of labeled population out of total cells. Indicated cell cycle phases: subG1; G1; S and G2M; and FIG. 1C are histograms summarizing the distribution of cell population as analyzed in FIG. 1B. Data represents mean±STDV values of five independent experiments.
FIG. 1H illustrates that caspase inhibition rescues Kasumi-1^RX1-KD from apoptosis. […] Histograms show the distribution of cells among cell cycle phases determined as detailed above. […]
FIGS. 2C-2G illustrate that KD of A-E rescues Kasumi-1 cells from RUNX1 KD-induced apoptosis. […] FIGS. 2C-2F, following incubation for 8 days, cells were stained with PI and analyzed by FACS for cell cycle; and FIG. 2G are histograms showing the distribution of cells among cell cycle phases. […]
For cell cycle analysis, cells were stained with Propidium iodide (Sigma-Aldrich) according to standard procedure. […] All data were collected using LSRII flow cytometer (BD Biosciences) and analyzed by FlowJo software.

SMILES: COC(=O)C[C@H](NC(=O)[C@H](C)NC(=O)[C@@H](NC(=O)OCc1ccccc1)C(C)C)C(=O)CF [Z-VAD-FMK] (Cbz-Val-Ala-Asp(OMe)-CH2F)
- RUNX1 protein levels in Kasumi-1^RX1-KD cells (RUNX1): further reduced
- apoptosis in Kasumi-1^RX1-KD cells (Kasumi-1 cells): completely blocked apoptosis
- subG1 fraction of Kasumi-1^RX1-KD cells (Kasumi-1 cells): profound decrease

Reference: patent publication US20160208246A1, “COMPOSITIONS AND METHODS FOR TREATING A HEMATOLOGICAL MALIGNANCY ASSOCIATED WITH AN ALTERED RUNX1 ACTIVITY OR EXPRESSION” (YEDA RESEARCH AND DEVELOPMENT CO. LTD., priority 2013, published 2016)
